Converted amounts (≈) assume the structure as drawn.
Tests used:
Format in all cases: functional
Breast cancer cell line = experiment: Compound was evaluated for its activity to inhibit growth of human breast cancer cell line
Leukemia cell = experiment: Compound was evaluated for its activity to inhibit growth of human leukemia cancer cell line
P388 = experiment: Compound was evaluated for its activity to inhibit growth of murine P388 lymphocytic leukemia; conditions: Mus musculus, read-out: ED50 (the source's name)
Micrococcus luteus = experiment: Compound was evaluated for the inhibition of growth of Micrococcus luteus; (12.5-25 ug/disk)

## O[C@@]12CCCCCC[C@H]3CCN4CCC[C@H](CCCCCC[C@H]5CCN(CCC1)[C@@H]2O5)[C@H]4O3 [XESTOSPONGIN D]
Breast cancer cell line
  GI50: 4.53 µM
Leukemia cell
  GI50: 3.62 µM
P388
  EC50: 1.7 µg/mL (≈ 3.67 µM)
Micrococcus luteus
  MIC: 25 ug disk-1

Source: ChEMBL document CHEMBL1150526, “Isolation and X-ray crystal structure of racemic Xestospongin D from the Singapore marine sponge Niphates sp1” (1996)
